Measured values reported in US11369665B2, “Anti-inflammatory peptides and composition comprising the same” (GemVax & KAEL Co., Ltd., priority 2012, dated 2022).

Columns and labels:
TNFR11B = assay: qPCR array in THP-1 cells; assay type: cell-based, human; conditions: LPS 10 ng/mL, 4 μM PEP-1, 4 h
Description: (§1) THP-1 cells (human monocytic leukemia derived cell line) were purchased from ATCC ([…] TYPE CULTURE COLLECTION®, Manassas, Va., USA) and cultured in RPMI-1640 (LIFE TECHNOLOGIES®, Carlsbad, Calif., USA) medium supplemented with 10% FBS (LIFE TECHNOLOGIES®), 1% penicillin/streptomycin (LIFE TECHNOLOGIES®), and 0.05 mM 2-mercaptoethanol (SIGMA-ALDRICH®, St. Louis, Mo., USA) at 37° C. in 5% CO2. THP-1 cells that normally grow in suspension were differentiated into an adherent macrophage-like phenotype in differentiation medium (complete growth medium containing 100 ng/mL phorbol 12-myristate 13-acetate (PMA, SIGMA-ALDRICH®)) for 24 hr. For differentiation, THP-1 cells (3×10^6 cells/plate, ˜95% confluency) were seeded into 10-cm tissue culture plates and incubated in differentiation medium.
(§2) Following differentiation, the macrophage-like THP-1 cells were washed twice using complete growth medium. Then, cells were treated with 10 ng/mL lipopolysaccharide (SIGMA-ALDRICH®) and/or 4 μM PEP-1 for 4 h at 37° C.
(§3) Total RNA was extracted and purified using RNeasy mini kit from QIAGEN® (Valencia, Calif., USA) following manufacturer's protocol. cDNAs were synthesized by reverse transcription using Reverse Transcription System from PROMEGA CORPORATION® (Madison, Wis., USA) according to the manufacturer's protocol.
(§4) Then, cDNA samples from THP-1 cells were used as template for real-time quantitative PCR (qPCR) analysis. For qPCR analysis, RT2 Profiler PCR Array kits were purchased from SABIOSCIENCES®/QIAGEN® (Valencia, Calif. USA). Four different PCR array kits analyzing separate signaling pathways used in the experiment are as follows: human signal transduction pathway finder, human inflammatory cytokines & receptors, human transcription factors, human NF-κB signaling pathway. PCR was performed with SYBR® Green qPCR detection system (QIAGEN®) using a BIO-RAD® (Hercules, Calif., USA) CFX 96 real-time PCR instrument. Thermocycling conditions were: 95° C. for 10 sec; 55° C. for 30 sec; 95° C. for 10 min; 95° C. for 10 sec, 55° C. for 30 sec, and 72° C. for 30 sec for 50 amplification cycles. Data represents the average value from three independent experiments, and % decrease was determined by the target gene expression in LPS treated samples vs. LPS+PEP-1 treated samples. Among 336 genes analyzed, only those showing statistically significant (p<0.05, student's t-test) % decrease were shown in table 7.

G-CSF = assay: qPCR array in THP-1 cells; assay type: cell-based, human; conditions: LPS 10 ng/mL, 4 μM PEP-1, 4 h
Description: as §1, §2, §3, §4

CCL4/MIP1β = assay: qPCR array in THP-1 cells; assay type: cell-based, human; conditions: LPS 10 ng/mL, 4 μM PEP-1, 4 h
Description: as §1, §2, §3, §4

IL10 = assay: qPCR array in THP-1 cells; assay type: cell-based, human; conditions: LPS 10 ng/mL, 4 μM PEP-1, 4 h
Description: as §1, §2, §3, §4

BCL10 = assay: qPCR array in THP-1 cells; assay type: cell-based, human; conditions: LPS 10 ng/mL, 4 μM PEP-1, 4 h
Description: as §1, §2, §3, §4

IL17C = assay: qPCR array in THP-1 cells; assay type: cell-based, human; conditions: LPS 10 ng/mL, 4 μM PEP-1, 4 h
Description: as §1, §2, §3, §4

CCL26/MIP4α = assay: qPCR array in THP-1 cells; assay type: cell-based, human; conditions: LPS 10 ng/mL, 4 μM PEP-1, 4 h
Description: as §1, §2, §3, §4

TNFα = assay: qPCR array in THP-1 cells; assay type: cell-based, human; conditions: LPS 10 ng/mL, 4 μM PEP-1, 4 h
Description: as §1, §2, §3, §4

[1] = system: ACSL5 (acyl-coA synthase); assay: qPCR array in THP-1 cells; assay type: cell-based, human; conditions: LPS 10 ng/mL, 4 μM PEP-1, 4 h
Description: as §1, §2, §3, §4

IkBα = assay: qPCR array in THP-1 cells; assay type: cell-based, human; conditions: LPS 10 ng/mL, 4 μM PEP-1, 4 h
Description: as §1, §2, §3, §4

GM-CSF = assay: qPCR array in THP-1 cells; assay type: cell-based, human; conditions: LPS 10 ng/mL, 4 μM PEP-1, 4 h
Description: as §1, §2, §3, §4

CD40Ligand = assay: qPCR array in THP-1 cells; assay type: cell-based, human; conditions: LPS 10 ng/mL, 4 μM PEP-1, 4 h
Description: as §1, §2, §3, §4

ILlRa = assay: qPCR array in THP-1 cells; assay type: cell-based, human; conditions: LPS 10 ng/mL, 4 μM PEP-1, 4 h
Description: as §1, §2, §3, §4

TNF-α = assay: Western blot of expression level, LPS-stimulated cells; assay type: cell-based; conditions: LPS 1 μg/ml, PEP 1 5 μg/ml
Description: (§5) Raw 264.7 macrophage cell (KCBL, 40071) from Korea Cell Bank was maintained in Dulbecco's modified Eagle's medium (DMEM; PAA, Austria) containing 10% fetal bovine serum (FBS; GIBCO®), 100 unit/mL of streptomycin, and penicillin (Gibco Laboratories) at 37° C. with 5% CO2. Raw 264.7 cells were seeded into a 96-well plate at a density of 1×10^6 cells/mL and incubated overnight.
(§6) On the following day, the medium was replaced with fresh medium and 5 μg/mL of peptide (obtained as described in Experiment example 1) was added to the cells. After 30 min incubation of cells with the peptide 50 μL of LPS (to a final concentration of 1 μg/mL) was added, and cells were incubated for additional 24 hr. The experimental sample with the induction of inflammatory response was treated with 1 μg/mL mL lipopolysaccharide (LPS; SIGMA-ALDRICH®, USA) and control sample was treated with phosphate buffered saline (PBS; pH 7.2). The supernatant samples from each condition was collected in eppendorf tubes and subjected to further analysis.
(§7) Protein expression level was determined by Western blot analysis. Cells grown in PEP-1 containing medium were washed with PBS, treated with 0.05% trypsin-EDTA, and collected by centrifugation. The collected cells were dissolved in an appropriate volume of lysis buffer. Intracellular debris was pelleted by centrifugation, and equal amount of protein from each sample was separated by SDS-polyacrylamide gel electrophoresis. The separated protein was transferred to nitrocellulose membrane (Schleicherand Schuell, Keene, N.H., USA), then was tested for the antibody specific for each protein. The membrane was incubated with ECL (enhanced chemiluminoesence) solution ([…]®), exposed to X-ray, and the level of protein expression was analyzed according to the exposure level shown on the X-ray film.

HMGB1 = assay: as above; assay type: cell-based; conditions: LPS 1 μg/ml, PEP 1 5 μg/ml
Description: as §5, §6, §7

COX-2 = assay: as above; assay type: cell-based; conditions: LPS 1 μg/ml, PEP 1 5 μg/ml
Description: as §5, §6, §7

neural stem cells = assay: Co-treatment amyloid-β and PEP-1: cell death (LDH assay); assay type: cell-based, rat; conditions: 20 μM amyloid-β protein, co-treated 48 hours
Description: To determine whether PEP 1 has the effect of suppressing the neurotoxicity caused by amyloid-β protein, 20 μM amyloid-β protein and various concentrations of PEP-1 were co-treated for 48 hours. The cell viability and apoptosis were measured using MMT assay, CCK-8 assay, LDH assay and TUNEL assay, and neural stem cell proliferation by BrdU assay.
(Refer to FIG. 8). LDH assay was carried out for assessment of the degree of cell death as another method, and we confirmed that the increase in cell death by amyloid-β decreased by PEP-1, and efficacy was seen starting at 1 μM concentration (Refer to FIG. 9).

EARPALLTSRLRFIPK [PEP-1]
TNFR11B % Decrease by PEP 1 (LPS + PEP-1/LPS), p < 0.05 (TNFR11B): ↓↓↓38%
G-CSF % Decrease by PEP 1 (LPS + PEP-1/LPS), p < 0.05 (G-CSF): ↓↓↓48%
CCL4/MIP1β % Decrease by PEP 1 (LPS + PEP-1/LPS), p < 0.05 (CCL4/MIP1β): ↓22%
IL10 % Decrease by PEP 1 (LPS + PEP-1/LPS), p < 0.05 (IL10): ↓↓32%
BCL10 % Decrease by PEP 1 (LPS + PEP-1/LPS), p < 0.05 (BCL10): ↓↓32%
IL17C % Decrease by PEP 1 (LPS + PEP-1/LPS), p < 0.05 (IL17C): ↓↓35%
CCL26/MIP4α % Decrease by PEP 1 (LPS + PEP-1/LPS), p < 0.05 (CCL26/MIP4α): ↓↓↓42%
TNFα % Decrease by PEP 1 (LPS + PEP-1/LPS), p < 0.05 (TNFα): ↓↓34%
ACSL5 (acyl-coA synthase) % Decrease by PEP 1 (LPS + PEP-1/LPS), p < 0.05 [1]: ↓17%
IkBα % Decrease by PEP 1 (LPS + PEP-1/LPS), p < 0.05 (IkBα): ↓↓27%
GM-CSF % Decrease by PEP 1 (LPS + PEP-1/LPS), p < 0.05 (GM-CSF): ↓↓29%
CD40Ligand % Decrease by PEP 1 (LPS + PEP-1/LPS), p < 0.05 (CD40Ligand): ↓18%
ILlRa % Decrease by PEP 1 (LPS + PEP-1/LPS), p < 0.05 (ILlRa): ↓20%
TNF-α Cytokine Expression Level (band intensity) % of control (TNF-α): 25%
HMGB1 Cytokine Expression Level (band intensity) % of control (HMGB1): 30%
COX-2 Cytokine Expression Level (band intensity) % of control (COX-2): 22%
concentration at which efficacy starts (LDH) (neural stem cells): 1 µM
increase in cell death by amyloid-β (LDH) (neural stem cells): decreased
